Measured values: ChEMBL document CHEMBL1759970, “Design, synthesis and SAR of novel ethylenediamine and phenylenediamine derivatives as factor Xa inhibitors” (Bioorg Med Chem Lett, 2011)
In brackets after ≈: the same amount, converted by molar mass.

Tests used:
physchem [1] = conditions: buffer, pH 1.2
Description: Solubility of compound at pH 1.2

physchem [2] = conditions: buffer, pH 6.8
Description: Solubility of compound at pH 6.8

| solubility (physchem [1]) [µg/mL] | solubility (physchem [2]) [µg/mL] | Compound |
| --- | --- | --- |
| 1.1 (≈ 2.04 µM) | < 1 | CCOC(=O)c1ccc(NC(=O)c2nc3c(s2)CN(C)CC3)c(NC(=O)c2cc3cc(Cl)ccc3[nH]2)c1 |
| 256 (≈ 462 µM) | 825 (≈ 1490 µM) | CC(Oc1ccc(NC(=O)c2cc3cc(Cl)ccc3[nH]2)c(NC(=O)c2nc3c(s2)CN(C)CC3)c1)C(=O)O (centres undefined) |
